Columns and labels:
PHD1 = molecular target: T1, PHD1 (Homo sapiens, UniProt Q96KS0); experiment: Prolyl hydroxylase assay (Eu-VBC binding to hydroxylated HIF-1α 556–574 peptide); assay type: biochemical; conditions: 20 µM 2-oxoglutarate, 10 µM Fe2+, 2 mM ascorbate
T1 construct: made in house; host or cells: Sf9 insect cells (baculovirus, pBacPAC transfer vectors)
Procedure: (§1) Recombinant human HIF-PHs were purified from Sf9 insect cell lysates. After infection with the recombinant virus stocks, generated via cloning of the respective cDNAs into pBacPAC transfer vectors (Clontech Laboratories), Sf9 cells were incubated for 48 h at 27°C with continuous shaking. Expression of the recombinant protein was confirmed by SDS-PAGE and western blot analysis of the expressed proteins. The lysate was centrifuged at 75,000 g at 4°C for 30 min and the supernatant containing the soluble HIF-PHs was incubated for 1 h at 2–8°C with CM Sepharose. After several wash steps, bound proteins were eluted from Sepharose using a linear NaCl gradient. […]
(§2) Hydroxylated biotinyl-HIF-1α 556–574 was incubated with Eu-VBC in 100 µl binding buffer (50 mM Tris [pH 7.5], 120 mM NaCl) for 60 min at room temperature. After washing six times with DELFIA wash buffer (PerkinElmer) and adding 100 µl enhancer solution (PerkinElmer), the amount of bound VBC was determined by measuring time-resolved fluorescence with a Tecan infinite M200 plate reader. Measurements were taken in triplicate or more, and results were expressed as means ± SEM. IC50 values were determined after curve fitting using GraphPad Prism software (GraphPad Software, La Jolla, CA, USA) applying the four-parameter logistic equation to the data sets. […]

PHD3 = molecular target: T2, PHD3 (Homo sapiens, UniProt Q9H6Z9); experiment: as above; assay type: biochemical; conditions: 20 µM 2-oxoglutarate, 10 µM Fe2+, 2 mM ascorbate
T2 construct: made in house; host or cells: Sf9 insect cells (baculovirus, pBacPAC transfer vectors)
T2 sequence (Q9H6Z9 whole entry): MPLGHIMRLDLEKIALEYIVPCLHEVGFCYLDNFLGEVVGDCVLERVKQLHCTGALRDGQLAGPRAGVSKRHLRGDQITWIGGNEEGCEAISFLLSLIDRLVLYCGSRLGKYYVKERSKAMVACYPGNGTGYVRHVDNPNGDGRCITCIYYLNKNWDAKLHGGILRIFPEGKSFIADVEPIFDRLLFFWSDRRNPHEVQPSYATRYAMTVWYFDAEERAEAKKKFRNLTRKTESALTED
Procedure: as §1, §2

T1 sequence (Q96KS0 whole entry): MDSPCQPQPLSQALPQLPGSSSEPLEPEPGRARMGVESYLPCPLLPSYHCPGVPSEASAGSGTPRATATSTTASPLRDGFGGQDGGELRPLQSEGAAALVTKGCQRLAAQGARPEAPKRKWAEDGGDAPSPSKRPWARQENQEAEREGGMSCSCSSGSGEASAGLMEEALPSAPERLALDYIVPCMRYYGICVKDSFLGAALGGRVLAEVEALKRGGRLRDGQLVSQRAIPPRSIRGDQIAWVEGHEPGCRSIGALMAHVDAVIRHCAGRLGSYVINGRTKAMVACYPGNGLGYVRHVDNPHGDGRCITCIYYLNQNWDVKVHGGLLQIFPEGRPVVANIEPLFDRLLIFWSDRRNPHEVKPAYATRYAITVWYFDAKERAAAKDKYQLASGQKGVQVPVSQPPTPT

## O=c1c(-n2ccnn2)c[nH]n1-c1cc(N2CCOCC2)ncn1 [BAY 85-3934, 2-[6-(morpholin-4-yl)pyrimidin-4-yl]-4-(1H-1,2,3-triazol-1-yl)-1,2-dihydro-3H-pyrazol-3-one]
PHD1
  IC50: 480 nM
PHD3
  IC50: 450 nM

From PMC4230943, “Mimicking Hypoxia to Treat Anemia: HIF-Stabilizer BAY 85-3934 (Molidustat) Stimulates Erythropoietin Production without Hypertensive Effects” (PLoS ONE, 2014)
